Laboratory results: the NIST ThermoML archive (doi:10.1016/j.jct.2012.02.017)
Numbers after ± are expanded uncertainties.

How the values were obtained:
[1] = Ring tensiometer
[2] = xn = mol fraction of the nth substance listed; settings: Ring tensiometer

CCCO [propan-1-ol]
[1]
Settings | surface tension liquid-gas [mN/m]
288.15 K | 23.34 ± 0.52
298.15 K | 22.54 ± 0.51
308.15 K | 21.62 ± 0.5
318.15 K | 20.99 ± 0.5

[2H]O[2H] [water-d2] + CCCO
surface tension liquid-gas [mN/m], [2]
Settings | 288.15 K | 298.15 K | 308.15 K | 318.15 K
x2 = 0.0007 | 70.61 ± 1.1 | 68.81 ± 1.2 | 67.5 ± 1.2 | 66.16 ± 1.3
x2 = 0.002 | 66.37 ± 1 | 63.94 ± 1.1 | 62.32 ± 1.1 | 61.9 ± 1.2
x2 = 0.0033 | 62.9 ± 0.98 | 58.5 ± 0.97 | 56.44 ± 0.96 | 54.18 ± 1
x2 = 0.0047 | 60.07 ± 0.93 | 55.76 ± 0.93 | 53.57 ± 0.92 | 50.4 ± 1
x2 = 0.006 | 57.59 ± 0.86 | 54.16 ± 0.82 | 52.75 ± 0.8 | 48.26 ± 0.76
x2 = 0.0099 | 52.32 ± 0.78 | 48.49 ± 0.74 | 46.75 ± 0.73 | 45.22 ± 0.7
x2 = 0.0165 | 45.84 ± 0.7 | 43.67 ± 0.68 | 40.52 ± 0.65 | 39.54 ± 0.64
x2 = 0.0255 | 41.34 ± 0.66 | 39.38 ± 0.64 | 38.39 ± 0.63 | 37.11 ± 0.62
x2 = 0.038 | 36.34 ± 0.61 | 34.78 ± 0.6 | 33.31 ± 0.59 | 32.45 ± 0.58
x2 = 0.0622 | 29 ± 0.56 | 28.09 ± 0.55 | 27.45 ± 0.54 | 27.03 ± 0.54
x2 = 0.138 | 25.81 ± 0.53 | 24.9 ± 0.52 | 24.75 ± 0.52 | 23.58 ± 0.51
x2 = 0.1851 | 25.78 ± 0.53 | 25.09 ± 0.52 | 24.19 ± 0.52 | 23.62 ± 0.51
x2 = 0.2272 | 25.17 ± 0.52 | 24.99 ± 0.52 | 24.38 ± 0.52 | 23.37 ± 0.51
x2 = 0.351 | 24.57 ± 0.52 | 23.79 ± 0.52 | 23.5 ± 0.51 | 22.88 ± 0.51
x2 = 0.4933 | 24.2 ± 0.52 | 23.58 ± 0.51 | 22.8 ± 0.51 | 22.12 ± 0.5
x2 = 0.6187 | 23.84 ± 0.52 | 22.94 ± 0.51 | 22.54 ± 0.51 | 21.8 ± 0.5
x2 = 0.8296 | 23.48 ± 0.52 | 22.64 ± 0.51 | 22.46 ± 0.51 | 21.64 ± 0.5

CO [methanol]
[1]
Settings | surface tension liquid-gas [mN/m]
288.15 K | 22.37 ± 0.51
298.15 K | 21.64 ± 0.5
308.15 K | 20.94 ± 0.5
318.15 K | 19.93 ± 0.49

[2H]O[2H] [water-d2] + CO
surface tension liquid-gas [mN/m], [2]
Settings | 288.15 K | 298.15 K | 308.15 K | 318.15 K
x2 = 0.0045 | 71.03 ± 0.92 | 69.55 ± 0.91 | 68.1 ± 0.89 | 66.54 ± 0.88
x2 = 0.0154 | 66.2 ± 0.88 | 65.13 ± 0.86 | 64.17 ± 0.85 | 62.8 ± 0.84
x2 = 0.0304 | 61.24 ± 0.83 | 60.45 ± 0.82 | 59.67 ± 0.81 | 58.88 ± 0.81
x2 = 0.0509 | 56.43 ± 0.78 | 55.33 ± 0.77 | 54.09 ± 0.76 | 52.97 ± 0.75
x2 = 0.0707 | 52.83 ± 0.75 | 52.04 ± 0.74 | 51.25 ± 0.73 | 50.48 ± 0.73
x2 = 0.0896 | 50.23 ± 0.72 | 49.45 ± 0.72 | 48.65 ± 0.71 | 47.92 ± 0.7
x2 = 0.1252 | 45.79 ± 0.69 | 45.01 ± 0.68 | 44.56 ± 0.68 | 42.8 ± 0.66
x2 = 0.1737 | 42.45 ± 0.66 | 41.8 ± 0.65 | 40.26 ± 0.64 | 39.66 ± 0.63
x2 = 0.2171 | 38.51 ± 0.62 | 38.07 ± 0.62 | 37.7 ± 0.62 | 36.61 ± 0.61
x2 = 0.2684 | 36.01 ± 0.6 | 35.49 ± 0.6 | 35.1 ± 0.6 | 34.16 ± 0.59
x2 = 0.3133 | 34.68 ± 0.59 | 34.05 ± 0.59 | 33.49 ± 0.58 | 32.65 ± 0.58
x2 = 0.353 | 33.4 ± 0.58 | 32.79 ± 0.58 | 32.05 ± 0.57 | 31.79 ± 0.57
x2 = 0.4271 | 31.83 ± 0.57 | 30.79 ± 0.56 | 30.29 ± 0.56 | 29.42 ± 0.55
x2 = 0.5279 | 29.14 ± 0.55 | 29.01 ± 0.55 | 28.68 ± 0.55 | 27.75 ± 0.54
x2 = 0.691 | 26.15 ± 0.53 | 25.65 ± 0.53 | 25.06 ± 0.52 | 24.38 ± 0.52
x2 = 0.8173 | 23.49 ± 0.51 | 22.96 ± 0.51 | 22.48 ± 0.51 | 21.75 ± 0.5

[2H]O[2H] [water-d2] + CCO
surface tension liquid-gas [mN/m], [2]
Settings | 288.15 K | 298.15 K | 308.15 K | 318.15 K
x2 = 0.0008 | 72.5 ± 0.96 | 70.96 ± 0.95 | 69.43 ± 0.94 | 67.73 ± 0.93
x2 = 0.0016 | 71.29 ± 0.95 | 69.78 ± 0.94 | 68.35 ± 0.93 | 66.43 ± 0.91
x2 = 0.0023 | 70.28 ± 0.94 | 68.67 ± 0.93 | 67.12 ± 0.92 | 65.55 ± 0.91
x2 = 0.0039 | 68.68 ± 0.93 | 66.88 ± 0.91 | 65.22 ± 0.9 | 63.52 ± 0.88
x2 = 0.007 | 65.31 ± 0.88 | 63.61 ± 0.87 | 61.92 ± 0.85 | 60.23 ± 0.83
x2 = 0.0116 | 62.13 ± 0.84 | 59.42 ± 0.82 | 58.1 ± 0.81 | 56.98 ± 0.8
x2 = 0.0191 | 57.62 ± 0.8 | 53.65 ± 0.76 | 52.63 ± 0.75 | 51.86 ± 0.75
x2 = 0.0295 | 52.54 ± 0.75 | 50.9 ± 0.73 | 48.05 ± 0.71 | 47.3 ± 0.7
x2 = 0.044 | 47.97 ± 0.71 | 46.07 ± 0.69 | 44.17 ± 0.68 | 42.27 ± 0.66
x2 = 0.0716 | 41.94 ± 0.66 | 38.62 ± 0.63 | 36.3 ± 0.61 | 33.32 ± 0.58
x2 = 0.1103 | 36.22 ± 0.61 | 34.15 ± 0.59 | 33.1 ± 0.58 | 31.3 ± 0.57
x2 = 0.157 | 32 ± 0.57 | 30.33 ± 0.56 | 29.1 ± 0.55 | 27.58 ± 0.54
x2 = 0.1991 | 30.52 ± 0.56 | 29.16 ± 0.55 | 28.14 ± 0.55 | 27.03 ± 0.54
x2 = 0.2462 | 29.15 ± 0.55 | 28.17 ± 0.55 | 27.39 ± 0.54 | 26.56 ± 0.53
x2 = 0.345 | 27.29 ± 0.54 | 25.99 ± 0.53 | 25.03 ± 0.52 | 24.63 ± 0.52
x2 = 0.4209 | 26.21 ± 0.53 | 25.23 ± 0.53 | 23.67 ± 0.51 | 22.85 ± 0.51
x2 = 0.4811 | 25.3 ± 0.53 | 24.59 ± 0.52 | 23.56 ± 0.51 | 22.7 ± 0.51
x2 = 0.5703 | 24.34 ± 0.52 | 23.44 ± 0.51 | 23.02 ± 0.51 | 22.3 ± 0.51
x2 = 0.6752 | 23.36 ± 0.51 | 22.45 ± 0.51 | 21.97 ± 0.5 | 21.57 ± 0.5
x2 = 0.7572 | 22.98 ± 0.51 | 21.59 ± 0.5 | 20.92 ± 0.5 | 20.9 ± 0.5
x2 = 0.8618 | 22.37 ± 0.51 | 21.48 ± 0.5 | 20.41 ± 0.49 | 20.11 ± 0.49

[2H]O[2H] [water-d2]
[1]
Settings | surface tension liquid-gas [mN/m]
288.15 K | 73.59 ± 0.94
298.15 K | 71.87 ± 0.93
308.15 K | 70.21 ± 0.91
318.15 K | 68.84 ± 0.9

CCO [ethanol]
[1]
Settings | surface tension liquid-gas [mN/m]
288.15 K | 22.08 ± 0.5
298.15 K | 21.19 ± 0.5
308.15 K | 20.35 ± 0.49
318.15 K | 20.18 ± 0.49
